Test results: patent publication US12377069B2, “Compounds, compositions, methods of using, and methods for preparing compounds” (UNIVERSITY OF LOUISVILLE RESEARCH FOUNDATION, INC., priority 2018, dated 2025)

Assays:
Nrf2 = Nrf2 reporter (ARE-luciferase) assay; format: cell-based, human; conditions: HT29, 50 μM, 24 h
Protocol: Nrf2-Reporter assay: ARE-luciferase plasmid vector was obtained from Cayman Chemicals. HT29 cells were transfected at 50% confluency using lipofectamine 3000 reagent (ThermoFisher Scientific). Briefly, cells were seeded in 6-well plates (0.5×10^6 cells) and grown for 24 h. The transfection complex containing 1 μg of plasmid DNA and transfection reagent was added to each well in absence of FBS. After 6 hr medium containing 10% FBS was added and cells were incubated for another 16-18 hr. These cells were treated with vehicle (0.01% DMSO) or UroA (50 μM) or UAS03 (50 μM) or sulforaphane (10 μM) for 24 h. After incubation with inducers, cells were lysed and firefly luciferase activities (luminiscence) were measured with Luciferase Assay System (Promega) using multiwell plate luminometer (BMG, LABTECH).

colon explants = assay: Colon explant culture; design: species or system mouse; conditions: 50 μM, 24 h
Protocol: Colon explant culture: Colon tissue pieces (0.5-1 cm length) from wild type (C57BL/6) or Nrf2^−/− or AhR^−/− mice were cultured in triplicates for 24 h in complete DMEM-high glucose medium (supplemented with 10% fetal bovine serum, 1× penicillin-streptomycin solution) in a humidified atmosphere in the presence of vehicle (0.01% DMSO), UroA (50 μM) or UAS03 (50 μM). The tissues were processed for protein preparation (tissue lysates with RIPA plus buffer) or total RNA isolation. These tissue lysates or RNA were used to determine the expression of Nrf2, Cldn4 and AhR.

AhR^−/− mice = assay: TNBS-induced colitis in AhR^−/− mice; format: in vivo, mouse; conditions: 20 mg/kg every 12 h; for serum IL-6 in AhR^−/− mice / serum TNF-α in AhR^−/− mice / shortening of colon lengths in AhR^−/− mice: 60 h post TNBS
Protocol: FIG. 8: UroA/UAS03 exert beneficial activities through AhR-dependent pathways. (A-F) Colitis was induced using TNBS in C57BL/6 (WT) and AhR^−/− mice (n=4/group 7-8 week old age). Mice were treated with Veh or UroA/UAS03 (20 mg/kg bodyweight) every 12 h post TNBS administration and mice were euthanized at post 60 h TNBS administration. (A) TNBS-induced colitis experimental design and treatment regimen. (B) Percent body weight loss (No TNBS-Solid black line; Veh+TNBS− Solid red line; UroA+TNBS− Solid blue line; UAS03+TNBS− Solid purple line), (C) representative colon images, (D) colon lengths, (E) gut permeability, (F) serum levels of IL-6 and TNF-α were determined. Statistical analysis was performed (unpaired t-test) using Graphpad Prism software. Error bars, ±SEM ***p<0.001; **p<0.01 *p<0.05. (G) AhR-Nrf2 dependent tight junction protein regulation by UroA/UAS03. UroA/UAS03 (L:ligands) bind to AhR and activate its nuclear translocation to induce expression of Cyp1A1 and Nrf2. […] (H) LPS (50 ng/ml)-induced IL-6 levels were measured in the presence of Vehicle or UroA or UAS03 (0.1, 1, 10, 20, 30 and 50 μM) in bone marrow derived macrophages (BMDM) from wild type (WT), Nrf2^−/− and AhR^−/− mice. The data is representative of two independent experiments with triplicates. Statistical analysis was performed (unpaired t-test) using Graphpad Prism software. Error bars, ±SEM ***p<0.001; **p<0.01 *p<0.05.
2,4,6-Trinitrobenzenesulfonic acid (TNBS)-induced colitis: Male C57BL/6 or Nrf2^−/− mice (6-8 week old age mice) were anesthetized with ketamine/xylazine (100 mg/12.5 mg/kg IP) mixture and administered with single dose of TNBS (2.5 mg/mice; Sigma Aldrich, USA) in 50% ethanol. After administration of TNBS, mice were held upside down for 30-60 sec to ensure proper distribution of TNBS in the colon. Control group received 50% ethanol without TNBS. Mice with TNBS were randomly divided into three groups, viz. vehicle (0.25% sodium carboxymethylcellulose (CMC)), UroA and UAS03. UroA or UAS03 was resuspended in 0.25% sodium-CMC at desired concentrations. The mice were given orally Veh or UroA or UAS03 in 100 μl at desired concentrations (4 or 20 mg/kg/body weight). The treatment started after 12 hours of TNBS administration and every 12 hours thereafter up to 72 hours. The experiment was terminated post 60 h TNBS, where AhR^−/− mice were involved. In some experiments, we treated only once at post 12 h TNBS administration. TNBS administered and control mice were euthanized for tissue and plasma collection after 80 hours of TNBS/ethanol treatment. Mice were examined for colitis phenotype.

MRP2 = MRP2 expression in 5FU-R colon cancer cells; format: cell-based; conditions: SW-5FUR colon cancer cell lines
Protocol: FIG. 43: UroA/UAS03 down regulate drug transporters. (A) Expression of MRP2 is measured by real time PCR upon treating with indicated doses of UroA or UAS03 in SW-5FUR colon cancer cell lines. (B) MRP2 activity is measured using CDCFDA (diacetate ester of 5(6)-carboxy-2′,7′-dichlorofluorescein) transporter assay in SW-FUR colon cancer cell lines upon treating with UroA/USA03.
This could result in increase in intracellular drug concentration leading to increase in cell death/decreased proliferation of drug resistant cancer cells upon treatment with 5FU and UroA/UAS03.

SMILES: Oc1ccc2c(c1)COc1cc(O)ccc1-2 [UAS03, 6H-benzo[c]chromene-3,8-diol]
- ARE-luciferase luminescence (Nrf2): enhanced luminescence
- Cldn4 and NQO1 in Nrf2^−/− and AhR^−/− colon explants (colon explants): did not appear to induce
- expression of Nrf2, NQO1 and Cldn4 in WT colon explants (colon explants): induced the expression
- rapid body weight loss in AhR^−/− mice treated with TNBS (AhR^−/− mice): some protective role
- serum IL-6 in AhR^−/− mice (AhR^−/− mice): did not appear to reduce IL-6
- serum TNF-α in AhR^−/− mice (AhR^−/− mice): slightly reduced
- shortening of colon lengths in AhR^−/− mice (AhR^−/− mice): did not appear to protect
- expression of drug transporters (MRP2) (MRP2): reduce the expression

SMILES: O=c1oc2cc(O)ccc2c2ccc(O)cc12 [UroA, 3,8-dihydroxy-6H-dibenzo[b,d]pyran-6-one]
- ARE-luciferase luminescence (Nrf2): enhanced luminescence
- Cldn4 and NQO1 in Nrf2^−/− and AhR^−/− colon explants (colon explants): did not appear to induce
- expression of Nrf2, NQO1 and Cldn4 in WT colon explants (colon explants): induced the expression
- serum IL-6 in AhR^−/− mice (AhR^−/− mice): did not appear to reduce IL-6
- serum TNF-α in AhR^−/− mice (AhR^−/− mice): slightly reduced
- shortening of colon lengths in AhR^−/− mice (AhR^−/− mice): did not appear to protect
- expression of drug transporters (MRP2) (MRP2): reduce the expression
